Assays:
Experiment in all cases: relative viability (nuclei count vs DMSO), 5 days (fraction); higher = more cells survive
[1] = compound: C#Cc1cccc(Nc2ncnc3cc(OC)c(OCCCCCCC(=O)NO)cc23)c1 [CUDC-101] + NC(=O)Nc1cc(-c2cccc(F)c2)sc1C(=O)N[C@H]1CCCNC1 [AZD7762] (partner 0.2 µM)
How it was run: (§1)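 A single step with final 0.05% Triton X-100, 1% formaldehyde and 1 ug/ml Hoechst fixed the cells and stained nuclei 5 days after treatment. Lung cancer cell lines in 1536-well plates had been treated by pin tool the day after seeding with one drug alone or a fixed anchor-drug dose plus five library-drug doses (not always all listed) in √10 steps, and nuclei were counted on 4× images. Relative viability is the ratio of nuclei in treated wells to nuclei in vehicle wells, taken as the median of duplicate plates.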

[2] = compound: C1=CC=C2C(=C1)N=C(S2)C(C#N)C3=NC(=NC=C3)NCCC4=CN=CC=C4 + C[C@]1(O)C[C@@H](c2nc(-c3ccc4ccc(-c5ccccc5)nc4c3)c3c(N)nccn32)C1 [Linsitinib] (partner 1 µM)
How it was run: as §1

[3] = compound: COc1cc2/c(=N/c3ccc(Br)cc3F)nc[nH]c2cc1OCC1CCN(C)CC1 [Vandetanib] + Cc1nc(NC(=O)N2CCC[C@H]2C(N)=O)sc1-c1ccnc(C(C)(C)C(F)(F)F)c1 [Alpelisib] (partner 2 µM)
How it was run: as §1

[4] = compound: COc1cc2/c(=N/c3ccc(Br)cc3F)nc[nH]c2cc1OCC1CCN(C)CC1 [Vandetanib] + N=C(N)NC(=N)NCCc1ccccc1 [Phenformin] (partner 250 µM)
How it was run: as §1

Row | Cell Line | relative viability ([1]; first compound 0.01 µM) | relative viability ([1]; first compound 0.03162 µM) | relative viability ([1]; first compound 0.1 µM) | relative viability ([1]; first compound 0.3162 µM) | relative viability ([1]; first compound 1 µM) | relative viability ([2]; first compound 0.005 µM) | relative viability ([2]; first compound 0.05 µM) | relative viability ([2]; first compound 0.1581 µM) | relative viability ([2]; first compound 0.5 µM) | relative viability ([3]; first compound 0.02 µM) | relative viability ([3]; first compound 0.06325 µM) | relative viability ([3]; first compound 0.2 µM) | relative viability ([3]; first compound 0.6325 µM) | relative viability ([3]; first compound 2 µM) | relative viability ([4]; first compound 0.02 µM) | relative viability ([4]; first compound 0.06325 µM) | relative viability ([4]; first compound 0.2 µM) | relative viability ([4]; first compound 0.6325 µM) | relative viability ([4]; first compound 2 µM) | relative viability ([2]; first compound 0.01581 µM)
1 | NCI-H1395 | 0.374 | 0.375 | 0.397 | 0.396 | 0.327 | 1.07 | 0.978 | 1.07 | 1.29 | 1.03 | 1.28 | 1.22 | 1.04 | 0.998 | 0.472 | 0.429 | 0.427 | 0.439 | 0.458 | 
2 | NCI-H1437 | 1.1 | 1 | 1.11 | 1.2 | 1.05 | 0.789 | 1.09 | 1.11 | 0.692 | 0.922 | 0.965 | 0.94 | 1 | 0.902 | 0.271 | 0.3 | 0.345 | 0.272 | 0.299 | 1.23
3 | NCI-H2087 | 1.32 | 1.46 | 1.28 | 1.24 | 0.815 | 1.03 | 1.07 | 1.1 | 0.915 | 0.953 | 1.17 | 1.28 | 1.04 | 1.07 | 0.415 | 0.45 | 0.457 | 0.447 | 0.44 | 0.954
4 | LCLC-103H | 0.674 | 0.739 | 0.761 | 0.877 | 0.675 | 1.03 | 1.14 | 1.09 | 1.06 | 0.923 | 0.898 | 0.983 | 0.972 | 0.943 | 0.316 | 0.319 | 0.357 | 0.344 | 0.31 | 1.08
5 | PC-14 | 0.428 | 0.339 | 0.214 | 0.185 | 0.124 | 0.914 | 0.972 | 1.08 | 0.896 | 0.922 | 0.846 | 0.911 | 0.447 | 0.182 | 0.576 | 0.478 | 0.215 | 0.235 | 0.125 | 1.07
6 | H3255 | 1.01 | 0.721 | 0.546 | 0.556 | 0.259 | 0.89 | 0.908 | 1.05 | 1.04 | 0.681 | 0.634 | 0.602 | 0.335 | 0.119 | 0.427 | 0.359 | 0.35 | 0.303 | 0.192 | 1.01
7 | NCI-H460 | 0.651 | 0.531 | 0.564 | 0.589 | 0.476 |  | 1.02 | 1.17 | 0.502 | 0.503 | 0.556 | 0.0233 | 0.434 | 0.419 | 0.498 | 0.48 | 0.544 | 0.49 | 0.48 | 1.15
8 | HOP-62 | 0.61 | 0.448 | 0.447 | 0.424 | 0.294 | 1.13 | 0.919 | 1.21 | 0.932 | 0.814 | 0.836 | 0.746 | 0.972 | 0.993 | 0.689 | 0.664 | 0.487 | 0.728 | 0.703 | 1.19

Source: the supplement of paper PMC10307832
